Earlier results as cited in US12121566B2, “Methods for treating gout” (Horizon Therapeutics USA, Inc., priority 2019, dated 2024).
Where two headings read alike, the source gives them in different places.

Experiments:
[1] = system: patients treated with allopurinol; conditions: cited from earlier work
[2] = cited from earlier work
[3] = system: serum proteins; conditions: cited from earlier work
[4] = cited from earlier work; for detectable in urine: after 8 hours

SMILES	patients who develop allergic reactions [1]	severe hypersensitivity syndrome [1]	stability in solution ([2]; excess sodium hydroxide (0.1N), especially on warming)	solubility in water ([2]; may be dissolved with one molar equivalent of alkali)	stability in solution ([2]; neutral or acid pH)	bound to serum proteins [3]	detectable in urine [4]	oral absorption ([4]; oral administration)
Oc1ncnc2[nH]ncc12 [allopurinol]	Approximately 2%	about 0.4%	–	–	–	–	–	–
Cn1cnc([N+](=O)[O-])c1Sc1ncnc2nc[nH]c12 [azathioprine, 6-[(1-methyl-4-nitro-1H-imidazol-5-yl)thio]-1H-purine]	–	–	hydrolysis to mercaptopurine occurs	insoluble	stable	30%	no azathioprine or mercaptopurine is detectable	well absorbed
Sc1ncnc2nc[nH]c12 [mercaptopurine, 6-mercaptopurine]	–	–	–	–	–	30%	no azathioprine or mercaptopurine is detectable	–
